Laboratory results from ChEMBL document CHEMBL1201862, “PubChem BioAssay data set” (2004).
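96-well plates; 48 h exposure; 5 concentrations. Endpoints by linear interpolation between flanking doses. Not reached: highest tested concentration assigned. GI50 marks 50% less growth.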 Calls of active or inactive are those of the source. Rule as the data show it: active = GI50 up to about 1.1 µM and inactive = higher.

Experiments:
Assay in all cases: NCI anticancer screen, dose series, 48 h
DU-145 = test system: DU-145
HOP-62 = test system: HOP-62
OVCAR-8 = test system: OVCAR-8
MOLT-4 = test system: MOLT-4
ACHN = test system: ACHN
MCF7 = test system: MCF7
RXF 393 = test system: RXF 393
PC-3 = test system: PC-3
UACC-62 = test system: UACC-62
NCI-H226 = test system: NCI-H226
UACC-257 = test system: UACC-257
OVCAR-4 = test system: OVCAR-4
786-0 = test system: 786-0
T47D = test system: T47D
HL-60 = test system: HL-60
NCI-H23 = test system: NCI-H23
LOX IMVI = test system: LOX IMVI
SK-OV-3 = test system: SK-OV-3
SK-MEL-5 = test system: SK-MEL-5
SK-MEL-2 = test system: SK-MEL-2

Row | SMILES | GI50 (DU-145) | GI50 (HOP-62) | GI50 (OVCAR-8) | GI50 (MOLT-4) | GI50 (ACHN) | GI50 (MCF7) | GI50 (RXF 393) | GI50 (PC-3) | GI50 (UACC-62) | GI50 (NCI-H226) | GI50 (UACC-257) | GI50 (OVCAR-4) | GI50 (786-0) | GI50 (T47D) | GI50 (HL-60) | GI50 (NCI-H23) | GI50 (LOX IMVI) | GI50 (SK-OV-3) | GI50 (SK-MEL-5) | GI50 (SK-MEL-2)
1 | Cc1cc(S(=O)(=O)Nc2n[nH]c(-c3ccc(Cl)cc3)n2)c(SSc2cc(Cl)c(C)cc2S(=O)(=O)Nc2n[nH]c(-c3ccc(Cl)cc3)n2)cc1Cl | 32.1 µM (inactive) | 54.5 µM (inactive) | 34.4 µM (inactive) | 25.8 µM (inactive) | 32.1 µM (inactive) | 24.6 µM (inactive) | 25.1 µM (inactive) | 29.2 µM (inactive) | 21.4 µM (inactive) | 22.5 µM (inactive) | 61.7 µM (inactive) | 28.5 µM (inactive) | 33.7 µM (inactive) | 14.6 µM (inactive) | 23.2 µM (inactive) | 34.5 µM (inactive) | 26.2 µM (inactive) | 39.5 µM (inactive) | 33.2 µM (inactive) | 
2 | Cc1ccc(-c2cnc(NC3OC(COC(=O)c4ccccc4)C(OC(=O)c4ccccc4)C(OC(=O)c4ccccc4)C3OC(=O)c3ccccc3)s2)cc1 (centres undefined) | > 100 µM (inactive) | > 100 µM (inactive) | > 100 µM (inactive) | > 100 µM (inactive) | > 100 µM (inactive) | > 100 µM (inactive) | > 100 µM (inactive) | > 100 µM (inactive) | 94.6 µM (inactive) | > 100 µM (inactive) | 67.9 µM (inactive) | 68.1 µM (inactive) | 44.6 µM (inactive) | > 100 µM (inactive) |  | > 100 µM (inactive) | > 100 µM (inactive) | > 100 µM (inactive) | > 100 µM (inactive) | > 100 µM (inactive)
3 | COC(=O)[C@@H]1[C@@H](c2cccc(Cl)c2)[C@H](C(=O)OC)C2(C[C@@]1(C)O)NCCS2 (some centres undefined) | 32.7 µM (inactive) | 92.3 µM (inactive) | 86.5 µM (inactive) | 0.57 µM (active) | > 100 µM (inactive) | 56.1 µM (inactive) | 49.4 µM (inactive) | 31.4 µM (inactive) | 73.5 µM (inactive) | > 100 µM (inactive) | 87.7 µM (inactive) | 46.7 µM (inactive) | 74.6 µM (inactive) | 29.6 µM (inactive) |  | 22.3 µM (inactive) | 38.2 µM (inactive) | > 100 µM (inactive) | 44.9 µM (inactive) | 16.6 µM (inactive)
4 | CC1(C)C(=O)N(O)C(C)(C)N1N=O | > 10 µM (inactive) | > 10 µM (inactive) | > 10 µM (inactive) | > 10 µM (inactive) | > 10 µM (inactive) | > 10 µM (inactive) | > 10 µM (inactive) | > 10 µM (inactive) |  | > 10 µM (inactive) | > 10 µM (inactive) | > 10 µM (inactive) | > 10 µM (inactive) | > 10 µM (inactive) | > 10 µM (inactive) | > 10 µM (inactive) |  |  |  | > 10 µM (inactive)
5 | NC1CC(=O)c2c1sc(Cl)c2Cl (centres undefined) | > 100 µM (inactive) | > 100 µM (inactive) | > 100 µM (inactive) | > 100 µM (inactive) | > 100 µM (inactive) | > 100 µM (inactive) | > 100 µM (inactive) | > 100 µM (inactive) | > 100 µM (inactive) |  | > 100 µM (inactive) |  | > 100 µM (inactive) | > 100 µM (inactive) | > 100 µM (inactive) |  |  | > 100 µM (inactive) | > 100 µM (inactive) | > 100 µM (inactive)
6 | CC(C)(C)OC(=O)N/N=C(/N)Cc1ccc(Cl)cc1 | > 100 µM (inactive) | > 100 µM (inactive) | > 100 µM (inactive) | > 100 µM (inactive) | > 100 µM (inactive) | > 100 µM (inactive) | > 100 µM (inactive) | > 100 µM (inactive) | > 100 µM (inactive) | > 100 µM (inactive) | > 100 µM (inactive) | > 100 µM (inactive) | > 100 µM (inactive) | > 100 µM (inactive) |  |  | > 100 µM (inactive) | > 100 µM (inactive) | > 100 µM (inactive) | > 100 µM (inactive)
7 | CC(Br)C(=O)NN1C2=C(Nc3ccccc31)c1cccc3cccc2c13 (centres undefined) | > 100 µM (inactive) | 22 µM (inactive) | 55.8 µM (inactive) | 36.6 µM (inactive) | 31.2 µM (inactive) | 34.5 µM (inactive) | > 100 µM (inactive) | > 100 µM (inactive) |  | > 100 µM (inactive) | 48.2 µM (inactive) |  | 45.9 µM (inactive) | 2.29 µM (inactive) | 57.5 µM (inactive) | > 100 µM (inactive) | 41.4 µM (inactive) |  | 62.1 µM (inactive) | 
8 | COC(=O)[C@@H](NC(=O)N(CCC#N)CCCN(C(=O)N[C@H](Cc1ccccc1)C(=O)OC)c1ccccc1)C(C)C | > 100 µM (inactive) | > 100 µM (inactive) | > 100 µM (inactive) | 23 µM (inactive) | 85.5 µM (inactive) | > 100 µM (inactive) | 95.9 µM (inactive) | 81.8 µM (inactive) | 33.3 µM (inactive) | > 100 µM (inactive) | 29.2 µM (inactive) | 50.4 µM (inactive) | > 100 µM (inactive) | 36.8 µM (inactive) |  | > 100 µM (inactive) | 97.3 µM (inactive) | > 100 µM (inactive) | 62.2 µM (inactive) | 40.6 µM (inactive)
9 | COC(=O)[C@@](C)(COC(=O)C(C)(C)C)NC(=O)OC(C)(C)C | > 100 µM (inactive) | > 100 µM (inactive) | > 100 µM (inactive) | > 100 µM (inactive) | > 100 µM (inactive) | > 100 µM (inactive) | > 100 µM (inactive) | > 100 µM (inactive) | > 100 µM (inactive) | > 100 µM (inactive) | > 100 µM (inactive) | > 100 µM (inactive) | > 100 µM (inactive) | > 100 µM (inactive) |  | > 100 µM (inactive) | > 100 µM (inactive) | > 100 µM (inactive) | > 100 µM (inactive) | > 100 µM (inactive)
10 | CC(=O)O[C@H]1C(=O)N(c2cc3c4ccccc4ccc3c3ccccc23)[C@@H]1c1ccccc1 | 14.5 µM (inactive) | 5.16 µM (inactive) | 3.97 µM (inactive) | 7.69 µM (inactive) | 6.38 µM (inactive) | 3.13 µM (inactive) | 2.72 µM (inactive) | 7.82 µM (inactive) | 3.15 µM (inactive) | 3.33 µM (inactive) | 4.09 µM (inactive) | 4.66 µM (inactive) | 3.79 µM (inactive) | 6.01 µM (inactive) |  | 5.51 µM (inactive) | 4.34 µM (inactive) | 4.74 µM (inactive) | 3.24 µM (inactive) | 2.65 µM (inactive)
11 | O=C(N/N=C\c1cccc2c([N+](=O)[O-])cccc12)Nc1ccccc1 | 26.9 µM (inactive) | 16.2 µM (inactive) | 12 µM (inactive) | 13.4 µM (inactive) | 14.2 µM (inactive) | 8.83 µM (inactive) | 7.53 µM (inactive) | 14.8 µM (inactive) | 10.4 µM (inactive) | 13.6 µM (inactive) | 19.5 µM (inactive) | 11.6 µM (inactive) | 16.6 µM (inactive) | 6.04 µM (inactive) | 14.7 µM (inactive) | 15.8 µM (inactive) | 7.74 µM (inactive) |  | 14.1 µM (inactive) | 2.27 µM (inactive)
